One molecule from US20050169981A1, “Solid compositions comprising ramipril” (priority 2001, published 2005) can be followed below.

The data set in a line: Stability of capsules stored at 50° C. for one week, degradation products by HPLC. It is filed as physicochemical. Conditions: starting ramipril, before encapsulation and storage. Here is the method:
For each of the 4 examples, the ingredients in the proportions shown were mixed together. The powder mixture was then passed through a #60 screen and mixed again. The powder mixture was then filled into size 4 two-piece hard gelatin capsules as a net fill of 150 mg per capsules, so that each capsule contained 1.25 mg of ramipril. Capsules of each of the examples were stored at 50° C. for one week and then tested by a high-performance liquid chromatographic method (HPLC) to determine the degradation products as a percentage of the ramipril content.

For `CCOC(=O)[C@H](CCc1ccccc1)N[C@@H](C)C(=O)N1[C@H](C(=O)O)C[C@@H]2CCC[C@@H]21` [ramipril, Ramipril], the “level of degradation products in the ramipril used to make the capsules” value stood at 0.29%.
